Like-named read-outs stand apart in the source and are kept apart here.
What was measured:
[1] = Plasma free fraction (fu) and unbound Cmax (Cmax,u); format: in vitro ADME, human; conditions: unbound plasma Cmax
[2] = test system: HepG2; design: method as in Albrecht 2019; conditions: In vitro Assay; ref Albrecht 2019; cited from earlier work
[3] = test system: HepG2 cells; conditions: Structural based (HCI), HepG2; ref O'Brien et al. 2006; cited from earlier work
[4] = test system: HepG2 cells; conditions: cited from earlier work
[5] = test system: HepG2 cells; conditions: cited from earlier work; remark: listed apart in the source
[6] = test system: THLE or HepG2 cells, isolated mitochondria, BSEP; conditions: cited from earlier work
[7] = test system: PHH; conditions: cited from earlier work
[8] = test system: hLiMTs; conditions: cited from earlier work
[9] = test system: HepG2 C3A spheroid, BSEP, Glu/Gal in HepG2 cells, bioactivation; conditions: cited from earlier work
[10] = read-out: Human plasma Cmax; total plasma Cmax.tot, median of 9 literature references; cited from earlier work
[11] = plasma free fraction; cited from earlier work
[12] = cited from earlier work
[13] = test system: PHH; conditions: In vitro Assay; ref Albrecht 2019; cited from earlier work
[14] = test system: isolated mouse liver mitochondria; conditions: In vitro Assay; ref Porceddu 2012; cited from earlier work
[15] = test system: hLiMTs; experiment: Combined HCI (HCS) and cellular ATP 3D assay in hLiMTs; conditions: for AC50 / minimal effective concentration: Homo sapiens
[16] = test system: HepaRG spheroids; experiment: Combined HCI (HCS) and cellular ATP 3D assay in HepaRG spheroids
[17] = In vitro Assay, ref Persson 2013
[18] = Modeled in vitro assays (cytotoxicity, mitochondrial dysfunction, BSEP), ref Aleo et al. 2019
[19] = In vitro Assay, ref Proctor 2017
[20] = Microtissue model structural based (HCI), combined HCS and ATP, MEC < 25 × Cmax.tot cut-off

Human plasma Cmax,u [1]: 538.224 µM | hLiMTs <25x Avg Cmax ATP ([15]; hLiMTs, ATP endpoint, cut-off <25x Avg Cmax): +ve | hLiMTs <100x Avg Cmaxu ATP ([15]; hLiMTs, ATP endpoint, cut-off <100x Avg Cmaxu): +ve (<100x Avg Cmaxu) | hLiMTs <25x Avg Cmax HCS ([15]; hLiMTs, HCS endpoints, cut-off <25x Avg Cmax): +ve | hLiMTs <100x Avg Cmaxu HCS ([15]; hLiMTs, HCS endpoints, cut-off <100x Avg Cmaxu): +ve (<100x Avg Cmaxu) | hLiMTs <25x Avg Cmax All ([15]; hLiMTs, all endpoints (ATP and HCS), cut-off <25x Avg Cmax): +ve | hLiMTs Cmax max All ([15]; hLiMTs, all endpoints, Cmax max used): +ve | hLiMTs Cmax min All ([15]; hLiMTs, all endpoints, Cmax min used): +ve | hLiMTs <10 uM All ([15]; hLiMTs, all endpoints, cut-off <10 uM): -ve | hLiMTs <100x Avg Cmaxu All ([15]; hLiMTs, all endpoints, cut-off <100x Avg Cmaxu): +ve (<100x Avg Cmaxu) | HepaRG <25x Avg Cmax ATP ([16]; HepaRG, ATP endpoint, cut-off <25x Avg Cmax): +ve | HepaRG <100x Avg Cmaxu ATP ([16]; HepaRG, ATP endpoint, cut-off <100x Avg Cmaxu): +ve (<100x Avg Cmaxu) | HepaRG <25x Avg Cmax HCS ([16]; HepaRG, HCS endpoints, cut-off <25x Avg Cmax): +ve | HepaRG <100x Avg Cmaxu HCS ([16]; HepaRG, HCS endpoints, cut-off <100x Avg Cmaxu): +ve (<100x Avg Cmaxu) | HepaRG <25x Avg Cmax All ([16]; HepaRG, all endpoints (ATP and HCS), cut-off <25x Avg Cmax): +ve | HepaRG Cmax max All ([16]; HepaRG, all endpoints, Cmax max used): +ve | HepaRG Cmax min All ([16]; HepaRG, all endpoints, Cmax min used): +ve | HepaRG <10 uM All ([16]; HepaRG, all endpoints, cut-off <10 uM): -ve | HepaRG <100x Avg Cmaxu All ([16]; HepaRG, all endpoints, cut-off <100x Avg Cmaxu): +ve (<100x Avg Cmaxu)
SMILES: CC(=O)Oc1ccccc1C(=O)O [acetylsalicylic acid]
Cytotoxicity HepG2 48 hrs [2]: +VE | DILI in vitro assay prediction, O'Brien (2006) [3]: +VE (lowest HCI endpoint IC50 (or in the absence of dose–response < 100 µM) < 30 × total human plasma exposure levels (Cmax.tot)) | Cluser analysis [4, 17]: -VE | Structural based (HCI) [4, 17]: -VE | DILI in vitro assay prediction, Persson (2013) ([4]; Structural based (HCI), HepG2, ref Persson et al. 2013): -VE | Structural based (HCI) ([5]; In vitro Assay, ref Tolosa 2012): +VE | DILI in vitro assay prediction, Tolosa (2012) ([5]; Structural based (HCI), HepG2, ref Tolosa et al. 2012): +VE | Partition Hybrid HRM Score ([6]; In vitro Assay, ref Aleo 2019): -VE | Ro2 Hybrid HRM Score ([6]; In vitro Assay, ref Aleo 2019): -VE | Partition Hybrid HRM Score ≥4, Aleo (2019) [6, 18]: -VE | Partition Hybrid HRM Score ≥8, Aleo (2019) [6, 18]: -VE | Rule of Two hybrid HRM Score ≥3, Aleo (2019) [6, 18]: -VE | Rule of Two hybrid HRM Score ≥8, Aleo (2019) [6, 18]: -VE | PHH/100xCmax, Proctor (2017) ([7]; 2D PHH, ATP, IC50 < 100 × Cmax.tot, ref Proctor et al. 2017): -VE | PHH/100uM, Proctor (2017) ([7]; 2D PHH, ATP, IC50 threshold 100 µM, ref Proctor et al. 2017): -VE | PHH ATP <100uM [7, 19]: -VE | hLiMTs ATP <100uM [8, 19]: -VE | hLiMTs/100xCmax, Proctor (2017) ([8]; hLiMTs, ATP, IC50 < 100 × Cmax.tot, ref Proctor et al. 2017): -VE | hLiMTs/100uM, Proctor (2017) ([8]; hLiMTs, ATP, IC50 threshold 100 µM, ref Proctor et al. 2017): -VE | Bayesian Machine Learning DILI prediction, Williams (2019) ([9]; Bayesian modeling, ref Williams et al. 2019): -VE | Bayesian Machine Learning ([9]; In vitro Assay, ref Williams 2019): -VE | Cmax [10]: 1380 µM | fu [11]: 0.390 | Assigned DILI category ([12]; Chen et al. 2016 or literature alignment, ref Chen et al. 2016): 3 | In vivo DILI ([12]; […]): -VE | In vivo DILI ([12]; ref Albrecht 2019): +VE | In vivo DILI ([12]; ref Aleo 2019): +VE | In vivo DILI ([12]; ref Persson 2013): +VE | In vivo DILI ([12]; ref Porceddu 2012): +VE | In vivo DILI ([12]; ref Proctor 2017): +VE | In vivo DILI ([12]; ref Tolosa 2012): +VE | In vivo DILI ([12]; ref Williams 2019): +VE | Cytotoxicity PHH 48 hrs [13]: +VE | in vitro data EC2<=1x Cmax [14]: +VE | in vitro data EC20<=2uM [14]: -VE | AC50 ([15]; read-out: ATP endpoint AC50): 3.25 mM | minimal effective concentration ([15]; read-out: ATP endpoint MEC): 2270 µM | AC50 ([15]; read-out: HCS endpoint AC50): 4.69 mM | minimal effective concentration ([15]; read-out: HCS endpoint MEC): 1930 µM | DILI prediction hLiMTs (HCS-MEC) [15, 20]: +VE (MEC < 25 × Cmax.tot cut-off) | AC50 ([16]; Homo sapiens, HepaRG, read-out: ATP endpoint AC50): 1.63 mM | minimal effective concentration ([16]; Homo sapiens, HepaRG, read-out: ATP endpoint MEC): 659 µM | minimal effective concentration ([16]; Homo sapiens, HepaRG, read-out: HCS endpoint MEC): 1340 µM | DILI prediction HepaRG spheroids (HCS-MEC) [16, 20]: +VE (MEC < 25 × Cmax.tot cut-off)

From paper PMC7395068, “The evolution of strategies to minimise the risk of human drug-induced liver injury (DILI) in drug discovery and development” (Archives of Toxicology, 2020)
